Data taken from article PMC5602078, “Rapid screening and identification of ACE inhibitors in snake venoms using at-line nanofractionation LC-MS” (Analytical and Bioanalytical Chemistry, 2017).
Where two headings read alike, the source gives them in different places. Where a SMILES comes first, the peptide text is derived from it. Where no end group is shown, it is not given here. [ ]: non-standard residue; d: D form. Phe(4-NO2) = N[C@@H](Cc1ccc([N+](=O)[O-])cc1)C(=O)O; pGlu = O=C1CC[C@@H](C(=O)O)N1; 2Abz = Nc1ccccc1C(=O)O

Experiments:
[1] = target: T1, angiotensin-converting enzyme (ACE) from rabbit lung (Oryctolagus cuniculus, UniProt P12822); format: biochemical; parameters: angiotensin-converting enzyme (ACE) from rabbit lung; purchased Sigma-Aldrich (Zwijndrecht, The Netherlands); host or cells: rabbit lung tissue; details: peptide in bioactive wells after LC nanofractionation of crude venom, sequenced by nanoLC-MS/MS
T1 sequence (P12822 34-1310): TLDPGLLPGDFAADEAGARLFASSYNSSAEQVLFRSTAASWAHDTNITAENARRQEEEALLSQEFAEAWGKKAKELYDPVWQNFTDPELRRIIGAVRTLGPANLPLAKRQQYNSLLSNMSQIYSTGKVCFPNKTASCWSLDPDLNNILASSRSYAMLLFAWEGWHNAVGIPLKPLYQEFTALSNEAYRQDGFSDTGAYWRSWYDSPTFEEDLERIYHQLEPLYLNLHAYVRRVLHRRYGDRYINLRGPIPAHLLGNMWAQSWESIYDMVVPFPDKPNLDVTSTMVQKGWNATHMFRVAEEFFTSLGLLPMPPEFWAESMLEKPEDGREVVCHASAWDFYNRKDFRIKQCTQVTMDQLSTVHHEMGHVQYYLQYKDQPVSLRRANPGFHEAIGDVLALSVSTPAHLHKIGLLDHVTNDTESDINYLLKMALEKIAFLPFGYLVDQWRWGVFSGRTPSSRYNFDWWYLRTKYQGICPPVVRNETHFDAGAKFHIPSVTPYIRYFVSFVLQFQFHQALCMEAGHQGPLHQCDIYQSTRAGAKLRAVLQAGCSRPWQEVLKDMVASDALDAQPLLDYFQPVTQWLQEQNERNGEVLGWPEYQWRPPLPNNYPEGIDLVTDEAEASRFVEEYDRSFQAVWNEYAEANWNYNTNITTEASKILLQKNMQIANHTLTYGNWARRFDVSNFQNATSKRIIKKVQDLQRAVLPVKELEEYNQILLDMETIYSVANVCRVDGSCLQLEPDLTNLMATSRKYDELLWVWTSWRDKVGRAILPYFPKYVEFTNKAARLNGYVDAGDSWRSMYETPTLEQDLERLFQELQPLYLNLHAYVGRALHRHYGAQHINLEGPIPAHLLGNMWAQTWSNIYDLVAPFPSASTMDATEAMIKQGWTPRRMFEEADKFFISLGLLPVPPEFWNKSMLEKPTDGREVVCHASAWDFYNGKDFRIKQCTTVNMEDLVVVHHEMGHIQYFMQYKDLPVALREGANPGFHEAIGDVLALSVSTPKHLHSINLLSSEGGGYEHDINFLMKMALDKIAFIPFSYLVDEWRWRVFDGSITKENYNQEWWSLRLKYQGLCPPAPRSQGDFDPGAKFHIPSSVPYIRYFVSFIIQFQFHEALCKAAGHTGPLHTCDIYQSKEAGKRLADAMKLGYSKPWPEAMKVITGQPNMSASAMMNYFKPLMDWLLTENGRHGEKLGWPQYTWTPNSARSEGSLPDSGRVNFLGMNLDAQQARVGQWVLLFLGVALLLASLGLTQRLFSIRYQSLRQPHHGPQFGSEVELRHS
Description: Water was purified using a Milli-Q Plus system from Millipore (Amsterdam, The Netherlands). Acetonitrile (ACN) (ULC/MS grade) and formic acid (FA) were obtained from Biosolve (Valkenswaard, The Netherlands). […] DMSO was obtained from Riedel-de Haën (Zwijndrecht, The Netherlands). Most snake venoms were obtained commercially from Kentucky Reptile Zoo (USA), Ventoxin (USA), Biotoxin (USA), Venom Supplies (Tanunda, Australia), and African Reptiles & Venoms (Johannesburg, South Africa). The Boiga irregularis and Gloydius blomhoffii venoms were kind gifts from Prof. Steve Mackessy (University of Northern Colorado, USA) and Prof. Sadaaki Iwanaga (Kyushu University, Japan), respectively. Lyophilized venoms were kept at −20 °C. Prior to analysis, snake venoms were diluted in water to an end concentration of approximately 5.0 ± 0.1 mg/mL. After analysis, the samples were kept at −80 °C for later re-analysis.
Liquid chromatography separation was performed on a Shimadzu (‘s-Hertogenbosch, The Netherlands) UPLC system controlled via the Shimadzu Lab Solutions software. Sample injection was performed with a Shimadzu SIL-30AC autosampler using a 50-μL injection volume for RPLC separation and a 20-μL injection volume for HILIC separation. A gradient separation was performed on a Waters (Milford, MA) xBridge C18 column (100 × 4.6 mm; 5 μm) with an xBridge C18 guard column (10 × 4.6 mm; 5 μm) in RPLC mode. In HILIC mode, an Atlantis™ HILIC silica column (150 × 2.1 mm; 3 μm) was used. The columns were thermostated at 37 °C in a Shimadzu CTD-30A column oven. The solvent delivery was performed with two Shimadzu LC-30AD parallel pumps with 0.6 and 0.15 mL/min total flow rates for RPLC and HILIC separation, respectively. The mobile phases consisted of eluent A (98% H2O, 2% ACN, and 0.1% FA) and eluent B (98% ACN, 2% H2O, and 0.1% FA). The setup was optimized and validated in RPLC mode using the following gradient: a linear increase from 0 to 30% B in 20 min followed by 5-min isocratic elution at 30% B and a subsequent decrease to 0% B in 1 min with a 5-min equilibration time. The snake venoms screening for ACE activity was performed both in RPLC and HILIC mode. In the RPLC mode, venoms were analyzed using a 20-min linear gradient from 0 to 50% B followed by a linear increase to 90% B in 2 min and then a 2-min isocratic elution at 90% B before going back to 0% B in 1 min. The column was then equilibrated for 5 min. In the HILIC mode, separation started at 50% B and decreased linearly to 0% B in 20 min. This was followed by 4-min column washing at 0% B and a subsequent increase to 50% B in 1 min. The column was then equilibrated for 10 min. After the column, a flow split was introduced in a 1:9 ratio. The larger flow portion was directed to a Gilson 235P autosampler for 6-s nanofractionation onto black 384-well plates (Greiner Bio One, Alphen aan den Rijn, The Netherlands). The nanofractionated plates were subsequently dried in a Christ Rotational Vacuum Concentrator (Salm en Kipp, Breukelen, The Netherlands) RVC 2−33 CD plus and then stored at −20 °C until use. Ariadne, an in-house written software, was used to control the nanofractionation. The smaller flow portion was directed towards a Shimadzu SPD-M20A prominence diode array detector followed by a Waters Ultima quadrupole–time-of-flight (q–TOF) mass spectrometer equipped with an electrospray ionization (ESI) source. […]

[2] = target: T1, angiotensin-converting enzyme (ACE) from rabbit lung; details: Fig. S1; for Vmax: normalized response
Protocol: (§1) ACE was stored at −20 °C as a 1-U/mL solution in 50% glycerol/50% 0.15 M Tris-HCl pH 8.3 supplemented with 5 mM ZnCl2. […] The assay was performed in a 0.15 M Tris-HCl buffer pH 8.3 supplemented with 0.5 M NaCl. […] This solution was then added directly to the nanofractionated plates at room temperature using a Multidrop™ 384 Reagent Dispenser (Thermo Fisher Scientific, Ermelo, The Netherlands). The final volume of the assay was 75 μL/well. The readout of the assay was fluorescence measured with a Varioskan™ Flash Multimode Reader (Thermo Fisher Scientific, Ermelo, The Netherlands) at 320 nm excitation and 420 nm emission wavelength. The measurements were performed at 37 °C after 1 h and after 2 h from the start of addition of the assay solution to the plates. Between the two time points, the plates were incubated at 37 °C. The activity of ACE in the wells was expressed as the slope of the kinetic curve that resulted from the two time point measurements. The resulting slopes were normalized and plotted in a graph versus time of each nanofraction collected using the GraphPad Prism 6 software (La Jolla, CA, USA). The slopes were normalized by dividing each slope value with the median of all the values obtained in a single measurement.
In the presence of an ACE inhibitor, a drop in the basal fluorescence is detected.
This was done by performing enzyme kinetic experiments using different substrate and enzyme concentrations. In total, five different enzyme concentrations (2.5, 5, 10, 20, and 40 mU) were tested in the ACE bioactivity assay, at eight substrate concentrations (5–500 μM), in a matrix fashion. […] Therefore, the results excluding the highest concentration tested (500 μM) were fitted into a Michaelis-Menten enzyme kinetic model. […] The data presented was normalized for comparison reasons (ESM Fig. S1). […] However, when using sufficiently long incubation times, low enzyme concentrations will yield a sufficient assay window for obtaining good S/N, also in combination with much lower than the Km substrate concentrations. In practice, these assay conditions allowed for two measurement points at 1 and 2 h after the beginning of the incubation resulting in repeatable slope determination of the enzymatic product formation.

[3] = target: T1, angiotensin-converting enzyme (ACE) from rabbit lung; assay: ACE bioactivity assay, dose-response (concentration-response) curves of synthetic peptides; format: biochemical; parameters: angiotensin-converting enzyme (ACE) from rabbit lung; purchased Sigma-Aldrich (Zwijndrecht, The Netherlands); host or cells: rabbit lung tissue
Protocol: Water was purified using a Milli-Q Plus system from Millipore (Amsterdam, The Netherlands). Acetonitrile (ACN) (ULC/MS grade) and formic acid (FA) were obtained from Biosolve (Valkenswaard, The Netherlands). […] DMSO was obtained from Riedel-de Haën (Zwijndrecht, The Netherlands).
as §1
The dose-response curves of all four synthetic peptides were determined and the IC50 values for each peptide were determined in the ACE bioactivity assay.
The serial dilutions of the peptides were tested in the assay using 1 mU/mL ACE enzyme and
40 µM substrate concentration.

[pGlu]NWPRPKVPP
ACE inhibitory peptide assigned to bioactivity peak (in words) [1]: ACE inhibitory peptides

Nc1ccccc1C(=O)NCC(=O)N[C@@H](Cc1ccc([N+](=O)[O-])cc1)C(=O)N1CCC[C@H]1C(=O)O [M1100, o-Aminobenzoylglycyl-p-nitro-L-phenylalanyl-L-proline] (H-[2Abz]G[Phe(4-NO2)]P-OH)
Km ([2]; 2.5 mU ACE): 46.8 µM
Vmax ([2]; 2.5 mU ACE): 120.0
Km ([2]; 5 mU ACE): 79.4 µM
Vmax ([2]; 5 mU ACE): 129.3
Km ([2]; 10 mU ACE): 56.3 µM
Vmax ([2]; 10 mU ACE): 122.9
Km ([2]; 20 mU ACE): 65.9 µM
Vmax ([2]; 20 mU ACE): 126.5
Km ([2]; 40 mU ACE): 65.4 µM
Vmax ([2]; 40 mU ACE): 126.6

CC(C)C[C@H](NC(=O)[C@@H]1CCC(=O)N1)C(=O)N[C@@H](Cc1c[nH]c2ccccc12)C(=O)N1CCC[C@H]1C(=O)N[C@@H](CCCNC(=N)N)C(=O)N1CCC[C@H]1C(=O)N[C@@H](Cc1c[nH]cn1)C(=O)N[C@H](C(=O)N1CCC[C@H]1C(=O)N1CCC[C@H]1C(=O)O)C(C)C ([pGlu]LWPRPHVPP-OH)
IC50 [3]: 1090 nM

CC[C@H](C)[C@H](NC(=O)[C@@H]1CCC(=O)N1)C(=O)N[C@@H](Cc1c[nH]c2ccccc12)C(=O)N1CCC[C@H]1C(=O)N[C@@H](CCCNC(=N)N)C(=O)N1CCC[C@H]1C(=O)N[C@@H](Cc1c[nH]cn1)C(=O)N[C@H](C(=O)N1CCC[C@H]1C(=O)N1CCC[C@H]1C(=O)O)C(C)C ([pGlu]IWPRPHVPP-OH)
IC50 [3]: 1010 nM

pEWPPWPPRPP(I/L)PP
ACE inhibitory peptide assigned to bioactivity peak (in words) [1]: bioactive peptide

CC(C)C[C@H](NC(=O)[C@@H]1CCCN1C(=O)[C@@H]1CCCN1C(=O)[C@H](CCCNC(=N)N)NC(=O)[C@@H]1CCCN1C(=O)[C@@H]1CCCN1C(=O)[C@H](Cc1c[nH]c2ccccc12)NC(=O)[C@@H]1CCCN1C(=O)[C@@H]1CCCN1C(=O)[C@H](Cc1c[nH]c2ccccc12)NC(=O)[C@@H]1CCC(=O)N1)C(=O)N1CCC[C@H]1C(=O)N1CCC[C@H]1C(=O)O ([pGlu]WPPWPPRPPLPP-OH)
IC50 [3]: 3370 nM

pE(I/L)WPRPHVPP
ACE inhibitory peptide assigned to bioactivity peak (in words) [1]: major bioactive compounds

CC[C@H](C)[C@H](NC(=O)[C@@H]1CCCN1C(=O)[C@@H]1CCCN1C(=O)[C@H](CCCNC(=N)N)NC(=O)[C@@H]1CCCN1C(=O)[C@@H]1CCCN1C(=O)[C@H](Cc1c[nH]c2ccccc12)NC(=O)[C@@H]1CCCN1C(=O)[C@@H]1CCCN1C(=O)[C@H](Cc1c[nH]c2ccccc12)NC(=O)[C@@H]1CCC(=O)N1)C(=O)N1CCC[C@H]1C(=O)N1CCC[C@H]1C(=O)O ([pGlu]WPPWPPRPPIPP-OH; C-terminus assumed)
IC50 [3]: 3470 nM

pEQWPPGHH(I/L)PP
ACE inhibitory peptide assigned to bioactivity peak (in words) [1]: ACE inhibitory peptides
ACE inhibitory peptide assigned to bioactivity peak (in words) ([1]; listed as peptide with m/z 1276): major bioactive compounds
